Test results published in the NIST ThermoML archive (doi:10.1021/je900387e).

Experiment: xn = mol fraction of the nth substance listed
Settings: Liquid, Pycnometric method

CCCCCl [1-chlorobutane] + O=C=O
Settings | mass density [kg/m3]
327.6 K, 14940 kPa, x1 = 0.0981 | 822
327.6 K, 15140 kPa, x1 = 0.0981 | 825
332.4 K, 9070 kPa, x1 = 0.1488 | 732
332.4 K, 9260 kPa, x1 = 0.1488 | 737
332.4 K, 9420 kPa, x1 = 0.1488 | 740
332.4 K, 9430 kPa, x1 = 0.0981 | 649
332.4 K, 9510 kPa, x1 = 0.0981 | 654
332.4 K, 9560 kPa, x1 = 0.0981 | 657
332.4 K, 9590 kPa, x1 = 0.1488 | 744
332.4 K, 9660 kPa, x1 = 0.0981 | 663
332.4 K, 9750 kPa, x1 = 0.0483 | 421
332.4 K, 9760 kPa, x1 = 0.0981 | 669
332.4 K, 9760 kPa, x1 = 0.1488 | 748
332.4 K, 9800 kPa, x1 = 0.0483 | 426
332.4 K, 9860 kPa, x1 = 0.0483 | 433
332.4 K, 9870 kPa, x1 = 0.0981 | 675
332.4 K, 9910 kPa, x1 = 0.0483 | 441
332.4 K, 9940 kPa, x1 = 0.1488 | 751
332.4 K, 9970 kPa, x1 = 0.0483 | 449
332.4 K, 10000 kPa, x1 = 0.0981 | 682
332.4 K, 10050 kPa, x1 = 0.0483 | 458
332.4 K, 10130 kPa, x1 = 0.0981 | 687
332.4 K, 10130 kPa, x1 = 0.1488 | 755
332.4 K, 10150 kPa, x1 = 0.0483 | 469
332.4 K, 10200 kPa, x1 = 0.0483 | 478
332.4 K, 10280 kPa, x1 = 0.0483 | 487
332.4 K, 10290 kPa, x1 = 0.0981 | 694
332.4 K, 10340 kPa, x1 = 0.1488 | 758
332.4 K, 10390 kPa, x1 = 0.0483 | 497
332.4 K, 10470 kPa, x1 = 0.0981 | 700
332.4 K, 10490 kPa, x1 = 0.0483 | 507
332.4 K, 10570 kPa, x1 = 0.1488 | 762
332.4 K, 10590 kPa, x1 = 0.0483 | 518
332.4 K, 10650 kPa, x1 = 0.0981 | 707
332.4 K, 10700 kPa, x1 = 0.0483 | 529
332.4 K, 10800 kPa, x1 = 0.1488 | 766
332.4 K, 10830 kPa, x1 = 0.0483 | 541
332.4 K, 10850 kPa, x1 = 0.0981 | 713
332.4 K, 10970 kPa, x1 = 0.0483 | 554
332.4 K, 11030 kPa, x1 = 0.1488 | 770
332.4 K, 11080 kPa, x1 = 0.0981 | 720
332.4 K, 11140 kPa, x1 = 0.0483 | 569
332.4 K, 11280 kPa, x1 = 0.1488 | 774
332.4 K, 11330 kPa, x1 = 0.0981 | 727
332.4 K, 11350 kPa, x1 = 0.0483 | 584
332.4 K, 11560 kPa, x1 = 0.0483 | 598
332.4 K, 11570 kPa, x1 = 0.1488 | 778
332.4 K, 11590 kPa, x1 = 0.0981 | 734
332.4 K, 11830 kPa, x1 = 0.0483 | 613
332.4 K, 11840 kPa, x1 = 0.1488 | 782
332.4 K, 11980 kPa, x1 = 0.0981 | 743
332.4 K, 12120 kPa, x1 = 0.0483 | 629
332.4 K, 12300 kPa, x1 = 0.0483 | 637
332.4 K, 12330 kPa, x1 = 0.1488 | 788
332.4 K, 12430 kPa, x1 = 0.0981 | 753
332.4 K, 12530 kPa, x1 = 0.0483 | 648
332.4 K, 12610 kPa, x1 = 0.0483 | 652
332.4 K, 12820 kPa, x1 = 0.1488 | 794
332.4 K, 12960 kPa, x1 = 0.0981 | 763
332.4 K, 13360 kPa, x1 = 0.1488 | 800
332.4 K, 13540 kPa, x1 = 0.0981 | 774
332.4 K, 13940 kPa, x1 = 0.1488 | 806
332.4 K, 14190 kPa, x1 = 0.0981 | 785
332.4 K, 14570 kPa, x1 = 0.1488 | 813
332.4 K, 14840 kPa, x1 = 0.1488 | 816
332.4 K, 14900 kPa, x1 = 0.0981 | 795
332.4 K, 15110 kPa, x1 = 0.0981 | 798
333.3 K, 9630 kPa, x1 = 0.0744 | 545
333.3 K, 9660 kPa, x1 = 0.0744 | 551
333.3 K, 9690 kPa, x1 = 0.0744 | 556
333.3 K, 9740 kPa, x1 = 0.0744 | 563
333.3 K, 9810 kPa, x1 = 0.0744 | 571
333.3 K, 9900 kPa, x1 = 0.0744 | 578
333.3 K, 9980 kPa, x1 = 0.0744 | 586
333.3 K, 10100 kPa, x1 = 0.0744 | 597
333.3 K, 10250 kPa, x1 = 0.0744 | 608
333.3 K, 10410 kPa, x1 = 0.0744 | 620
333.3 K, 10600 kPa, x1 = 0.0744 | 632
333.3 K, 10840 kPa, x1 = 0.0744 | 645
333.3 K, 11110 kPa, x1 = 0.0744 | 658
333.3 K, 11420 kPa, x1 = 0.0744 | 672
333.3 K, 11800 kPa, x1 = 0.0744 | 686
333.3 K, 12260 kPa, x1 = 0.0744 | 701
333.3 K, 12810 kPa, x1 = 0.0744 | 717
333.3 K, 13470 kPa, x1 = 0.0744 | 733
333.3 K, 14290 kPa, x1 = 0.0744 | 750
333.3 K, 14750 kPa, x1 = 0.0744 | 759
333.3 K, 15240 kPa, x1 = 0.0744 | 768
337.4 K, 9620 kPa, x1 = 0.1488 | 705
337.4 K, 9770 kPa, x1 = 0.1488 | 709
337.4 K, 9890 kPa, x1 = 0.0981 | 605
337.4 K, 9930 kPa, x1 = 0.0744 | 509
337.4 K, 9950 kPa, x1 = 0.1488 | 714
337.4 K, 9960 kPa, x1 = 0.0483 | 378
337.4 K, 9960 kPa, x1 = 0.0744 | 513
337.4 K, 9980 kPa, x1 = 0.0981 | 612
337.4 K, 10010 kPa, x1 = 0.0744 | 520
337.4 K, 10040 kPa, x1 = 0.0483 | 384
337.4 K, 10070 kPa, x1 = 0.0981 | 619
337.4 K, 10080 kPa, x1 = 0.0744 | 527
337.4 K, 10090 kPa, x1 = 0.0483 | 390
337.4 K, 10150 kPa, x1 = 0.0981 | 625
337.4 K, 10150 kPa, x1 = 0.1488 | 719
337.4 K, 10160 kPa, x1 = 0.0483 | 396
337.4 K, 10180 kPa, x1 = 0.0744 | 536
337.4 K, 10230 kPa, x1 = 0.0483 | 402
337.4 K, 10250 kPa, x1 = 0.0981 | 632
337.4 K, 10280 kPa, x1 = 0.0744 | 547
337.4 K, 10290 kPa, x1 = 0.0483 | 409
337.4 K, 10360 kPa, x1 = 0.0483 | 415
337.4 K, 10360 kPa, x1 = 0.0981 | 639
337.4 K, 10360 kPa, x1 = 0.1488 | 724
337.4 K, 10420 kPa, x1 = 0.0483 | 422
337.4 K, 10420 kPa, x1 = 0.0744 | 560
337.4 K, 10490 kPa, x1 = 0.0483 | 429
337.4 K, 10500 kPa, x1 = 0.0981 | 647
337.4 K, 10550 kPa, x1 = 0.0744 | 571
337.4 K, 10570 kPa, x1 = 0.0483 | 436
337.4 K, 10580 kPa, x1 = 0.1488 | 729
337.4 K, 10630 kPa, x1 = 0.0981 | 654
337.4 K, 10650 kPa, x1 = 0.0483 | 444
337.4 K, 10700 kPa, x1 = 0.0744 | 583
337.4 K, 10730 kPa, x1 = 0.0483 | 452
337.4 K, 10790 kPa, x1 = 0.0981 | 662
337.4 K, 10820 kPa, x1 = 0.0483 | 459
337.4 K, 10840 kPa, x1 = 0.1488 | 735
337.4 K, 10870 kPa, x1 = 0.0744 | 595
337.4 K, 10900 kPa, x1 = 0.0483 | 468
337.4 K, 10960 kPa, x1 = 0.0981 | 670
337.4 K, 10990 kPa, x1 = 0.0483 | 477
337.4 K, 11060 kPa, x1 = 0.0744 | 607
337.4 K, 11090 kPa, x1 = 0.0483 | 485
337.4 K, 11090 kPa, x1 = 0.1488 | 740
337.4 K, 11170 kPa, x1 = 0.0981 | 678
337.4 K, 11190 kPa, x1 = 0.0483 | 495
337.4 K, 11270 kPa, x1 = 0.0483 | 501
337.4 K, 11270 kPa, x1 = 0.0744 | 620
337.4 K, 11340 kPa, x1 = 0.0483 | 508
337.4 K, 11380 kPa, x1 = 0.0981 | 686
337.4 K, 11380 kPa, x1 = 0.1488 | 746
337.4 K, 11440 kPa, x1 = 0.0483 | 516
337.4 K, 11510 kPa, x1 = 0.0483 | 521
337.4 K, 11520 kPa, x1 = 0.0744 | 634
337.4 K, 11640 kPa, x1 = 0.0981 | 694
337.4 K, 11680 kPa, x1 = 0.1488 | 751
337.4 K, 11830 kPa, x1 = 0.0744 | 648
337.4 K, 11930 kPa, x1 = 0.0981 | 703
337.4 K, 12030 kPa, x1 = 0.1488 | 757
337.4 K, 12200 kPa, x1 = 0.0744 | 663
337.4 K, 12240 kPa, x1 = 0.0981 | 711
337.4 K, 12380 kPa, x1 = 0.1488 | 762
337.4 K, 12580 kPa, x1 = 0.0981 | 721
337.4 K, 12630 kPa, x1 = 0.0744 | 679
337.4 K, 12750 kPa, x1 = 0.1488 | 768
337.4 K, 12950 kPa, x1 = 0.0981 | 729
337.4 K, 13160 kPa, x1 = 0.0744 | 695
337.4 K, 13180 kPa, x1 = 0.1488 | 774
337.4 K, 13380 kPa, x1 = 0.0981 | 739
337.4 K, 13450 kPa, x1 = 0.1488 | 778
337.4 K, 13780 kPa, x1 = 0.1488 | 781
337.4 K, 13800 kPa, x1 = 0.0744 | 713
337.4 K, 14110 kPa, x1 = 0.0981 | 753
337.4 K, 14120 kPa, x1 = 0.1488 | 786
337.4 K, 14480 kPa, x1 = 0.1488 | 790
337.4 K, 14580 kPa, x1 = 0.0744 | 731
337.4 K, 14830 kPa, x1 = 0.1488 | 794
337.4 K, 14970 kPa, x1 = 0.0981 | 768
337.4 K, 15140 kPa, x1 = 0.0744 | 742
337.4 K, 15300 kPa, x1 = 0.0981 | 774
